# Assay results taken from patent US7772268B2, “Diacyl indazole derivatives as lipase and phospholipase inhibitors” (Sanofi-Aventis, priority 2005, dated 2010).
# Key:
# [1] = target: T1, endothelial lipase (EL) (Homo sapiens, UniProt Q9Y5X9); assay: EL inhibition assay (conditioned medium of recombinant cell lines, Bodipy phospholipid substrate); type: biochemical; conditions: EL from conditioned medium (CHO, HEK293); 37° C., 60 minutes
# T1 construct: made in house; host or cells: recombinant cell lines CHO, HEK293 (conditioned medium, concentrated)
# T1 sequence (Q9Y5X9 21-500): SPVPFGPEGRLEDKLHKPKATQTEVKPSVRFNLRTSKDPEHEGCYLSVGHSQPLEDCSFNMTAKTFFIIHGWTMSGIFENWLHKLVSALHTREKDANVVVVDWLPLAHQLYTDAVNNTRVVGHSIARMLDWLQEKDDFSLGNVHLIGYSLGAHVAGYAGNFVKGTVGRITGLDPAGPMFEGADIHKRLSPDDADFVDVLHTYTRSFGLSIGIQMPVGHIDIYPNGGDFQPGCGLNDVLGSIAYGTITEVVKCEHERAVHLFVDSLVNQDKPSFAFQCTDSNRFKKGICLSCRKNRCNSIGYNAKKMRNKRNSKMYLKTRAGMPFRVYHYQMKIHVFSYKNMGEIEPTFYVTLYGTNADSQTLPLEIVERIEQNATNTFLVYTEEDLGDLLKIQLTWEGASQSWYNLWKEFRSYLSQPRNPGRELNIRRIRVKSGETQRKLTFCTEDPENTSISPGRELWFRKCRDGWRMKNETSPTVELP
# Text: EL is released as secretory protein in high concentration into cell culture medium (conditioned medium) by recombinant cell lines (CHO, HEK293). This is employed as enzyme solution after concentration.
# The phospholipase-specific substrate 1,2-bis(4,4-difluoro-5,7-dimethyl-4-bora-3a,4a-diaza-s-indacene-3-undecanoyl)-sn-glycero-3-phosphocholine, (manufacturer Molecular Probes) is used to characterize the enzymatic activity of endothelial lipase and the effect of inhibitors. Hydrolysis of the A1 ester linkage of this phospholipid by the enzyme liberates the fluorescent dye Bodipy which can be detected after separation by thin-layer chromatography on an HPTLC plate (silica gel 60, Merck) or directly in the reaction vessel by measuring the fluorescence.
# The substrate solution is prepared by taking up 100 μg of 1,2-bis(4,4-difluoro-5,7-dimethyl-4-bora-3a,4a-diaza-s-indacene-3-undecanoyl)-sn-glycero-3-phospho-choline (manufacturer Molecular Probes), 2.4 mg of tripalmitin (Sigma) and 7.9 mg of DOP—choline (1,2-dioleoyl-sn-glycero-3-phosphocholine) in 393 μl of chloroform and then transferring 157 μl into a fresh reaction vessel. After evaporation of the solvent, the lipid mixture is dissolved in 4 ml of 200 mM TRIS-HCl, 150 mM sodium chloride, pH=7.4, by sonication twice. The subsequent enzymic reaction takes place at 37° C. for 60 minutes. For this purpose, 45 μl of the substrate solution are incubated with 1 μl of inhibitor of appropriate concentration (dissolved in DMSO, pure DMSO solution is used as control) and 5 μl of enzyme solution (conditioned medium). Then 3 μl of the assay mixture are loaded onto an HPTLC plate (silica gel 60, Merck), and the liberated fluorescent dye is separated for detection with an eluent (diethyl ether:petroleum benzene:acetic acid [78:22:1]). After evaporation of the eluent, the plate is read in a fluorescence scanner. An increased release of the fluorescent dye in the uninhibited reaction is to be observed as a measure of the enzymic activity.
# The enzymatic activity is reduced as a function of the inhibitor concentration used, and the inhibitor concentration at which a half-maximum enzymatic activity is observed is called IC50.
# [2] = target: T2, hormone sensitive lipase, HSL (Rattus norvegicus, UniProt P15304); assay: HSL inhibition assay (partially purified HSL, [3H]trioleoylglycerol substrate); type: biochemical; conditions: partially purified HSL from rat fat cells; 37° C., 30 min
# T2 construct: Isolated rat fat cells are obtained from epididymal adipose tissue; from tissue; host or cells: rat epididymal adipose tissue (isolated fat cells, Wistar rats)
# T2 sequence (P15304 301-1068 limits assumed): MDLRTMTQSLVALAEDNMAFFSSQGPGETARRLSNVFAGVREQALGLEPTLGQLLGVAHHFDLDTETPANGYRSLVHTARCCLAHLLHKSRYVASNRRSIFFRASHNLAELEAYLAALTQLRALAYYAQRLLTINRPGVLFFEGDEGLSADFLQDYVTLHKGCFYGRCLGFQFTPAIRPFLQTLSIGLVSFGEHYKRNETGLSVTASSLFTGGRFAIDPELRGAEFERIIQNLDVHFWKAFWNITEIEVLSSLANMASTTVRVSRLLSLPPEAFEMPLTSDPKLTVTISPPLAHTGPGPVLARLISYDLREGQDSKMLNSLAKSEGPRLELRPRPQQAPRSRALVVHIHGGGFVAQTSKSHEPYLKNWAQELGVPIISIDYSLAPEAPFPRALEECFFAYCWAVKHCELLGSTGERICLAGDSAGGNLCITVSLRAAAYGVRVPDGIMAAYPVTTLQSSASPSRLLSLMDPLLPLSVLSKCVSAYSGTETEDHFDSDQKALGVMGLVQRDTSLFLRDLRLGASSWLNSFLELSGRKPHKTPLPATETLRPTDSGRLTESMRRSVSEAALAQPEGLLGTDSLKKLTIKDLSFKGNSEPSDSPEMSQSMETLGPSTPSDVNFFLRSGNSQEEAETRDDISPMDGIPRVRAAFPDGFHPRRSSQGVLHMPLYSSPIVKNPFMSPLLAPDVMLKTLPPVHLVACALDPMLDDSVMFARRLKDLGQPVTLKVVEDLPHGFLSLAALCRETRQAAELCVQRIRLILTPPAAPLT
# Description: Preparation of the partially purified HSL:
# Isolated rat fat cells are obtained from epididymal adipose tissue from untreated male rats (Wistar, 220-250 g) by collagenase treatment in accordance with published methods (e.g. S, Nilsson et al., Anal. Biochem. 158, 1986, 399-407; G. Fredrikson et al., J. Biol. Chem. 256, 1981, 6311-6320; H. Tornquist et al., J. Biol. Chem. 251, 1976, 813-819). The fat cells from 10 rats are washed three times by flotation with 50 ml of homogenization buffer ([…] Tris/HCl, pH 7.4, 0.25 M sucrose, 1 mM ETDA, 1 mM DTT, 10 μg/ml leupeptin, 10 μg/ml antipain, 20 μg/ml pepstatin) each time and finally taken up in 10 ml of homogenization buffer. The fat cells are homogenized in a Teflon-in-glass homogenizer (Braun-Melsungen) by 10 strokes at 1500 rpm and 15° C. The homogenate is centrifuged (Sorvall SM24 tubes, 5000 rpm, 10 min, 4° C.). The subnatant between the layer of fat at the top and the pellet is removed and the centrifugation is repeated. The subnatant resulting therefrom is centrifuged again (Sorvall SM24 tubes, 20 000 rpm, 45 min, 4° C.). […] After incubation at 4° C. for 60 min (shaking at intervals of 15 min), the mixture is centrifuged (Sorvall SM24 tubes, 3000 rpm, 10 min, 4° C.). The supernatant is adjusted to pH 5.2 by adding glacial acetic acid and is incubated at 4° C. for 30 min. The precipitates are collected by centrifugation (Sorvall SS34, 12 000 rpm, 10 min, 4° C.) and suspended in 2.5 ml of 20 mM Tris/HCl, pH 7.0, 1 mM EDTA, 65 mM NaCl, 13% sucrose, 1 mM DTT, 10 μg/ml leupeptin/pepstatin/antipain. The suspension is dialyzed against 25 mM Tris/HCl, pH 7.4, 50% glycerol, 1 mM DTT, 10 μg/ml leupeptin, pepstatin, antipain at 4° C. overnight and then loaded onto a hydroxiapatite column (0.1 g per 1 ml of suspension, equilibrated with 10 mM potassium phosphate, pH 7.0, 30% glycerol, 1 mM DTT). The column is washed with four volumes of equilibration buffer at a flow rate of 20 to 30 ml/h. The HSL is eluted with one volume of equilibration buffer containing 0.5 M potassium phosphate and then dialyzed (see above) and concentrated 5- to 10-fold by ultrafiltration (Amicon Diaflo PM 10 Filter) at 4° C. The partially purified HSL can be stored at −70° C. for 4 to 6 weeks.
# To prepare the substrate, 25-50 μCi of [3H]trioleoylglycerol (in toluene), 6.8 μmol of unlabeled trioleoylglycerol and 0.6 mg of phospholipids (phosphatidylcholine/phosphatidylinositol 3:1 w/v) are mixed, dried with N2 and then taken up in 2 ml of 0.1 M KPi (pH 7.0) by ultrasound treatment (Branson 250, microtip, setting 1-2, 2×1 min with an interval of 1 min). After addition of 1 ml of KPi and renewed ultrasound treatment (4×30 sec on ice with intervals of 30 sec), 1 ml of 20% BSA (in KPi) is added (final concentration of trioleoylglycerol 1.7 mM). For the reaction, 100 μl of substrate solution are pipetted into 100 μl of HSL solution (HSL prepared as above, diluted in 20 mM KPi, pH 7.0, 1 mM EDTA, 1 mM DTT, 0.02% BSA, 20 μg/ml pepstatin, 10 μg/ml leupeptin) and incubated at 37° C. for 30 min. Addition of 3.25 ml of methanol/chloroform/heptane (10:9:7) and of 1.05 ml of 0.1 M K2CO3, 0.1 M boric acid (pH 10.5) is followed by thorough mixing and finally centrifugation (800×g, 20 min). After phase separation, one equivalent of the upper phase (1 ml) is removed and the radioactivity is determined by liquid scintillation measurement.
# Substances are normally tested in four independent mixtures. The inhibition of the HSL enzymatic activity by a test substance is determined by comparing with an uninhibited control reaction. The IC50 is calculated from an inhibition plot with at least 10 concentrations of the test substance. The GRAPHIT, Elsevier-BIOSOFT software package is used to analyze the data.
Molecule,IC50 [1] [µM],IC50 [2] [µM]
"6-Chloro-3-oxo-3H-indazole-1,2-dicarboxylic acid bisbenzylamide [Example 11a]",0.26,–
"6-Chloro-3-oxo-3H-indazole-1,2-dicarboxylic acid bishexylamide [Example 10a]",0.05,–
"O=C(Oc1nn(C(=O)N2CCN(c3ccccc3)CC2)c2cc(F)ccc12)N1CCN(c2ccccc2)CC1 [Example 1a, 6-Fluoro-1-(4-phenylpiperazine-1-carbonyl)-1H-indazol-3-yl 4-phenylpiperazine-1-carboxylate]",–,0.32
"O=C(N1CCN(c2ccccc2)CC1)n1c(=O)c2ccc(F)cc2n1C(=O)N1CCN(c2ccccc2)CC1 [Example 1b, 6-fluoro-1,2-bis(4-phenylpiperazine-1-carbonyl)-1,2-dihydroindazol-3-one]",–,0.62
"O=C(Oc1nn(C(=O)N2CCc3sccc3C2)c2cc(F)ccc12)N1CCc2sccc2C1 [Example 2, 1-(6,7-Dihydro-4H-thieno[3,2-c]pyridine-5-carbonyl)-6-fluoro-1H-indazol-3-yl 6,7-dihydro-4H-thieno[3,2-c]pyridine-5-carboxylate]",–,1.11
"CC1CCN(C(=O)Oc2nn(C(=O)N3CCC(C)CC3)c3cc(F)ccc23)CC1 [Example 9b, 6-fluoro-1-(4-methylpiperidine-1-carbonyl)-1H-indazol-3-yl 4-methylpiperidine-1-carboxylate]",–,1.15
"CCCCCCNC(=O)Oc1nn(C(=O)NCCCCCC)c2cc(Cl)ccc12 [Example 10b, 6-chloro-1-hexylcarbamoyl-1H-indazol-3-yl hexylcarbamate]",0.06,–
"O=C(NCc1ccccc1)Oc1nn(C(=O)NCc2ccccc2)c2cc(Cl)ccc12 [Example 11b, 1-benzylcarbamoyl-6-chloro-1H-indazol-3-yl benzyl carbamate]",1.47,–
"Cc1ccccc1CNC(=O)n1c(=O)c2ccccc2n1C(=O)N1CCC(C)CC1 [Example 12, 1-(4-Methylpiperidine-1-carbonyl)-3-oxo-1,3-dihydroindazole-2-carboxylic acid 2-methylbenzylamide]",0.22,–
"Cc1ccccc1CNC(=O)n1c(=O)c2ccccc2n1C(=O)NCc1ccccc1C [Example 13, 3-Oxo-3H-indazole-1,2-dicarboxylic acid bis(2-methylbenzylamide)]",0.84,–
"CC1CCN(C(=O)Oc2nn(C(=O)N3CCC(C(F)(F)F)CC3)c3cc(N)ccc23)CC1 [Example 14, 6-Amino-1-(4-trifluoromethylpiperidine-1-carbonyl)-1H-indazol-3-yl 4-methyl-piperidine-1-carboxylate]",–,1
"Cc1cc(O)nc2c1c(OC(=O)N1CCC(C(F)(F)F)CC1)nn2C(=O)N1CCN(C)CC1 [Example 15, 6-Hydroxy-4-methyl-1-(4-methylpiperazine-1-carbonyl)-1H-pyrazolo[3,4-b]pyridin-3-yl 4-trifluoromethylpiperidine-1-carboxylate]",–,1.5
"Cc1cc(O)nc2c1c(OC(=O)N1CCC(C)CC1)nn2C(=O)N1CCC(C(F)(F)F)CC1 [Example 16, 6-Hydroxy-4-methyl-1-(4-trifluoromethylpiperidine-1-carbonyl)-1H-pyrazolo-[3,4-b]pyridin-3-yl 4-methylpiperidine-1-carboxylate]",–,0.58
